Experiments:
Type in all cases: cell-based, human
[1] = test system: all four epirubicin-resistant cell lines (MDA-MB-231, MCF7, SKBR3, ZR-75-1); test: Drug resistance and cross resistance, CCK-8 viability; details: 72 h
Experimental: (§1) Native and resistant cells were exposed to drug concentrations ranging from 0.3 nM to 3000 nM. Cell viability was determined 72 h later by CCK-8 assay. A) Percent of live cells relative to DMSO control was plotted against epirubicin concentration. Black=native cells, magenta=resistant cells. B) IC50 values in nM concentration±standard deviation. Resistance factor is shown in parenthesis and represents resistant IC50/native IC50.
(§2) Breast cancer cell lines (MDA-MB-231, MCF7, ZR-75-1, SKBR3) were purchased from ATCC and cultured in DMEM (except SKBR3, cultured in RPMI) supplemented with 10% heat-inactivated fetal bovine serum and 1% L-glutamine (Gibco, Burlington, Canada). Epirubicin-resistant cell lines were generated by exposing native cells to increasing concentrations of epirubicin with an initial concentration set at 0.5 nM. Resistance was defined when IC50 value superseded the IC50 value of the corresponding native cell line, and resistant cells could not tolerate further increase in drug concentration. Drug resistance and cross resistance were determined by exposing cells to drug concentrations ranging from 0.3-3000 nM for 72 h. Cell viability was determined by Cell Counting Kit-8 (CCK-8, Dojindo, Cedarlane, Burlington, Canada). IC50 were calculated in GraphPad Prism5.

[2] = test system: MCF7 epirubicin-resistant cells; test: Cross resistance, CCK-8 viability; details: MCF7, 72 h
Experimental: as §1, §2

[3] = test system: MDA-MB-231 epirubicin-resistant cells; test: Cross resistance, CCK-8 viability; details: MDA-MB-231, 72 h
Experimental: as §1, §2

[4] = test system: SKBR3 epirubicin-resistant cells; test: Cross resistance, CCK-8 viability; details: SKBR3, 72 h
Experimental: as §1, §2

[5] = test system: ZR-75-1 epirubicin-resistant cells; test: Cross resistance, CCK-8 viability; details: ZR-75-1, 72 h
Experimental: as §1, §2

[6] = test system: 231 EpiR (epirubicin-resistant MDA-MB-231 cells); test: HDAC inhibitor cytotoxicity, CellTiter-Glo viability; details: for IC50: 72 h, CellTiter-Glo, in the presence of selection dose of epirubicin (25 nM)
Experimental: (§3) All inhibitors were provided by the Drug Discovery group at the Ontario Institute for Cancer Research (OICR, Toronto, Canada). Cells were seeded at 1000-1500 cells/well into 384-well plates (Greiner, Mississauga, Canada). […] After 72 h, the effects of inhibitors were determined using CellTiter-Glo Luminescent Cell Viability Assay (Promega, Madison, USA) and the Wallac EnVision 2104 Multilabel Reader (Perkin-Elmer, Woodbridge, Canada). Raw data were normalized to negative (media) and positive (20 μM staurosporine) controls and analyzed in GraphPad Prism5.

[7] = test system: 231 Nat (native MDA-MB-231 cells); test: as above
Experimental: as §3

[8] = test system: MCF7 EpiR (epirubicin-resistant MCF7 cells); test: as above; details: for IC50: 72 h, CellTiter-Glo, in the presence of selection dose of epirubicin (30 nM)
Experimental: as §3

[9] = test system: MCF7 Nat (native MCF7 cells); test: as above
Experimental: as §3

[10] = test system: SKBR3 EpiR (epirubicin-resistant SKBR3 cells); test: as above; details: for IC50: 72 h, CellTiter-Glo, in the presence of selection dose of epirubicin (15 nM)
Experimental: as §3

[11] = test system: SKBR3 Nat (native SKBR3 cells); test: as above
Experimental: as §3

[12] = test system: ZR75 EpiR (epirubicin-resistant ZR-75-1 cells); test: as above; details: 72 h, in the presence of selection dose of epirubicin (10 nM)
Experimental: as §3

[13] = test system: ZR75 Nat (native ZR-75-1 cells); test: as above
Experimental: as §3

N.N.O=C([O-])C1(C(=O)[O-])CCC1.[Pt+2] [carboplatin]
cross-resistance of epirubicin-resistant cell lines [1]: None of the cell lines were cross-resistant

CC(=O)O[C@@]12CO[C@@H]1C[C@H](O)[C@@]1(C)C(=O)[C@H](O)C3=C(C)[C@@H](OC(=O)[C@H](O)[C@@H](NC(=O)OC(C)(C)C)c4ccccc4)C[C@@](O)([C@@H](OC(=O)c4ccccc4)[C@H]21)C3(C)C [docetaxel]
cross-resistance of epirubicin-resistant cells [2]: not taxane-resistant
cross-resistance of epirubicin-resistant cells [3]: not taxane-resistant
cross-resistance of epirubicin-resistant cells [4]: cross-resistant
cross-resistance of epirubicin-resistant cells [5]: not taxane-resistant

O=C(/C=C/c1cccc(S(=O)(=O)Nc2ccccc2)c1)NO [Belinostat]
IC50 [6]: 180 nM
IC50 ([7]; Homo sapiens, MDA-MB-231, 72 h): 500 nM
IC50 [8]: 200 nM
IC50 ([9]; Homo sapiens, MCF7, 72 h): 250 nM
IC50 [10]: 150 nM
IC50 ([11]; Homo sapiens, SK-BR-3, 72 h): 210 nM
IC50 [12]: 460 nM
IC50 ([13]; Homo sapiens, ZR75, 72 h): 360 nM

O=C(/C=C/c1ccc(CN(CCO)CCc2c[nH]c3ccccc23)cc1)NO [Dacinostat]
IC50 [6]: 20 nM
IC50 ([7]; Homo sapiens, MDA-MB-231, 72 h): 40 nM
IC50 [8]: 10 nM
IC50 ([9]; Homo sapiens, MCF7, 72 h): 20 nM
IC50 [10]: 60 nM
IC50 ([11]; Homo sapiens, SK-BR-3, 72 h): 20 nM
IC50 [12]: 20 nM
IC50 ([13]; Homo sapiens, ZR75, 72 h): 20 nM

Oxamflatin
IC50 [6]: 290 nM
IC50 ([7]; 72 h): 590 nM
IC50 [8]: 250 nM
IC50 ([9]; 72 h): 620 nM
IC50 [10]: 690 nM
cytotoxicity for epirubicin-resistant cells compared to native cell lines ([10]; SKBR3, with epirubicin): more cytotoxic
IC50 ([11]; 72 h): 1280 nM
IC50 [12]: 1200 nM
IC50 ([13]; 72 h): 680 nM

O=C(/C=C/c1cccc(C(=O)NO)c1)NO [CBHA]
IC50 [6]: 1750 nM
IC50 ([7]; 72 h): 2390 nM
IC50 [8]: 3580 nM
IC50 ([9]; 72 h): 1180 nM
IC50 [10]: 1030 nM
IC50 ([11]; 72 h): 1450 nM
IC50 [12]: 2250 nM
IC50 ([13]; 72 h): 2940 nM

CCCCc1nc2cc(/C=C/C(=O)NO)ccc2n1CCN(CC)CC [Pracinostat]
IC50 [6]: 180 nM
cytotoxicity for epirubicin-resistant cells compared to native cell lines ([6]; MDA-MB-231, with epirubicin): more cytotoxic
IC50 ([7]; Homo sapiens, MDA-MB-231, 72 h): 540 nM
IC50 [8]: 120 nM
IC50 ([9]; Homo sapiens, MCF7, 72 h): 160 nM
IC50 [10]: 920 nM
IC50 ([11]; Homo sapiens, SK-BR-3, 72 h): 260 nM
IC50 [12]: 230 nM
IC50 ([13]; Homo sapiens, ZR75, 72 h): 150 nM

CCc1c2c(nc3ccc(O)cc13)-c1cc3c(c(=O)n1C2)COC(=O)[C@]3(O)CC [SN-38]
cross-resistance of epirubicin-resistant cells [2]: tolerated only small increases in SN-38 concentrations
cross-resistance of epirubicin-resistant cells [3]: cross-resistant
cross-resistance of epirubicin-resistant cells [4]: cross-resistant
cross-resistance of epirubicin-resistant cells [5]: tolerated only small increases in SN-38 concentrations

CCC(=O)CCCCC[C@@H]1NC(=O)[C@H]2CCCCN2C(=O)[C@H]([C@@H](C)CC)NC(=O)[C@H](Cc2cn(OC)c3ccccc23)NC1=O
IC50 [6]: 110 nM
IC50 ([7]; 72 h): 230 nM
IC50 [8]: 110 nM
IC50 ([9]; 72 h): 70 nM
IC50 [10]: 2210 nM
IC50 ([11]; 72 h): 170 nM
IC50 [12]: 250 nM
IC50 ([13]; 72 h): 210 nM

Cn1cc(CNCC2CCN(c3ncc(C(=O)NO)cn3)CC2)c2ccccc21 [Quisinostat]
IC50 [6]: 10 nM
IC50 ([7]; Homo sapiens, MDA-MB-231, 72 h): 10 nM
IC50 [8]: 10 nM
IC50 ([9]; Homo sapiens, MCF7, 72 h): 10 nM
IC50 [10]: 220 nM
IC50 ([11]; Homo sapiens, SK-BR-3, 72 h): 10 nM
IC50 [12]: 10 nM
IC50 ([13]; Homo sapiens, ZR75, 72 h): 10 nM

CCN(CC)Cc1ccc2cc(COC(=O)Nc3ccc(C(=O)NO)cc3)ccc2c1 [Givinostat]
IC50 [6]: 160 nM
IC50 ([7]; Homo sapiens, MDA-MB-231, 72 h): 260 nM
IC50 [8]: 80 nM
IC50 ([9]; Homo sapiens, MCF7, 72 h): 100 nM
IC50 [10]: 2740 nM
IC50 ([11]; Homo sapiens, SK-BR-3, 72 h): 220 nM
IC50 [12]: 180 nM
IC50 ([13]; Homo sapiens, ZR75, 72 h): 170 nM

CC(=O)O[C@H]1C(=O)[C@@]2(C)[C@H]([C@H](OC(=O)c3ccccc3)[C@]3(O)C[C@H](OC(=O)[C@H](O)[C@@H](NC(=O)c4ccccc4)c4ccccc4)C(C)=C1C3(C)C)[C@]1(OC(C)=O)CO[C@@H]1C[C@@H]2O [paclitaxel]
cross-resistance of epirubicin-resistant cells [2]: not taxane-resistant
cross-resistance of epirubicin-resistant cells [3]: not taxane-resistant
cross-resistance of epirubicin-resistant cells [4]: cross-resistant
cross-resistance of epirubicin-resistant cells [5]: not taxane-resistant

Nc1ccccc1NC(=O)c1ccc(CNc2nccc(-c3cccnc3)n2)cc1 [Mocetinostat]
IC50 [6]: 430 nM
IC50 ([7]; Homo sapiens, MDA-MB-231, 72 h): 850 nM
IC50 [8]: 410 nM
IC50 ([9]; Homo sapiens, MCF7, 72 h): 320 nM
IC50 [10]: 3690 nM
IC50 ([11]; Homo sapiens, SK-BR-3, 72 h): 1000 nM
IC50 [12]: 430 nM
IC50 ([13]; Homo sapiens, ZR75, 72 h): 350 nM

Cc1[nH]c2ccccc2c1CCNCc1ccc(/C=C/C(=O)NO)cc1 [Panobinostat]
IC50 [6]: 10 nM
IC50 ([7]; Homo sapiens, MDA-MB-231, 72 h): 20 nM
IC50 [8]: 10 nM
IC50 ([9]; Homo sapiens, MCF7, 72 h): 10 nM
IC50 [10]: 70 nM
IC50 ([11]; Homo sapiens, SK-BR-3, 72 h): 20 nM
IC50 [12]: 20 nM
IC50 ([13]; Homo sapiens, ZR75, 72 h): 10 nM

O=C(CCCCCN1C(=O)c2cccc3cccc(c23)C1=O)NO [Scriptaid]
IC50 [6]: 1300 nM
IC50 ([7]; Homo sapiens, MDA-MB-231, 72 h): 3810 nM
IC50 [8]: 720 nM
IC50 ([9]; Homo sapiens, MCF7, 72 h): 1340 nM
IC50 [10]: 940 nM
IC50 ([11]; Homo sapiens, SK-BR-3, 72 h): 1250 nM
IC50 [12]: 1230 nM
IC50 ([13]; Homo sapiens, ZR75, 72 h): 1660 nM

CC(/C=C/C(=O)NO)=C\[C@@H](C)C(=O)c1ccc(N(C)C)cc1 [Trichostatin A]
IC50 [6]: 150 nM
IC50 ([7]; 72 h): 330 nM
IC50 [8]: 500 nM
IC50 [10]: 1240 nM
IC50 ([11]; 72 h): 1520 nM
IC50 [12]: 2280 nM
IC50 ([13]; 72 h): 1830 nM

CN(C)Cc1c(C(=O)NCCOc2ccc(C(=O)NO)cc2)oc2ccccc12 [Abexinostat]
IC50 [6]: 120 nM
IC50 ([7]; Homo sapiens, MDA-MB-231, 72 h): 270 nM
IC50 [8]: 90 nM
IC50 ([9]; Homo sapiens, MCF7, 72 h): 110 nM
IC50 [10]: 2250 nM
IC50 ([11]; Homo sapiens, SK-BR-3, 72 h): 210 nM
IC50 [12]: 160 nM
IC50 ([13]; Homo sapiens, ZR75, 72 h): 140 nM

CC(C)(C)OC(=O)Nc1ccc(-c2cc(C(=O)NCCCCCCC(=O)NO)no2)cc1 [CAY10603]
IC50 [6]: 820 nM
IC50 ([7]; 72 h): 1270 nM
IC50 [8]: 380 nM
cytotoxicity for epirubicin-resistant cells compared to native cell lines ([8]; MCF7, with epirubicin): more cytotoxic
IC50 ([9]; 72 h): 610 nM
IC50 [10]: 1030 nM
IC50 ([11]; 72 h): 440 nM
IC50 [12]: 750 nM
IC50 ([13]; 72 h): 980 nM

Source: patent US20180282819A1, “Targeting the Histone Pathway to Detect and Overcome Anthracyclin Resistance” (ONTARIO INSTITUTE FOR CANCER RESEARCH (OICR), priority 2015, published 2018)
